Test results published in PubChem BioAssay (NCI).
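Values below derive from 48-hour exposures of cells grown in 96-well plates, with endpoints linearly interpolated between the two concentrations bracketing the appropriate inhibition level. Here, GI50 denotes the concentration required for 50% inhibition of growth. TGI marks complete inhibition of growth.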

Key:
Test in all cases: DTP human tumour cell line panel, 48 h
[1] = system: SF-268 CNS
[2] = system: RXF 393 renal
[3] = system: UACC-62 melanoma
[4] = system: HOP-92 NSCLC
[5] = system: HS 578T breast
[6] = system: NCI/ADR-RES ovarian
[7] = system: OVCAR-4 ovarian
[8] = system: SK-MEL-5 melanoma
[9] = system: U251 CNS
[10] = system: HT29 colon
[11] = system: BT-549 breast
[12] = system: EKVX NSCLC
[13] = system: OVCAR-3 ovarian
[14] = system: RPMI-8226 leukemia
[15] = system: SNB-19 CNS
[16] = system: OVCAR-8 ovarian
[17] = system: NCI-H226 lung
[18] = system: MDA-MB-435
[19] = system: SN12C renal
[20] = system: M14 melanoma
[21] = system: DU-145 prostate
[22] = system: MOLT-4 leukemia
[23] = system: HL-60(TB) leukemia
[24] = system: NCI-H460 lung
[25] = system: SK-MEL-28 melanoma
[26] = system: 786-0 renal
[27] = system: KM12 colon
[28] = system: IGROV1 ovarian
[29] = system: OVCAR-5 ovarian
[30] = system: TK-10 renal
[31] = system: HOP-62 NSCLC
[32] = system: NCI-H522 lung
[33] = system: UO-31 renal
[34] = system: SF-295 CNS
[35] = system: K-562 leukemia
[36] = system: A549 NSCLC
[37] = system: SW-620 colon
[38] = system: MCF7 breast
[39] = system: SNB-75 CNS
[40] = system: LOX IMVI melanoma
[41] = system: MDA-MB-231 breast
[42] = system: CCRF-CEM leukemia
[43] = system: UACC-257 melanoma
[44] = system: T-47D breast
[45] = system: HCT-15 colon
[46] = system: A498 renal
[47] = system: SK-OV-3 ovarian
[48] = system: HCT-116 colon
[49] = system: SF-539 CNS
[50] = system: PC-3 prostate
[51] = system: SR leukemia
[52] = system: HCC-2998 colon
[53] = system: ACHN renal
[54] = system: NCI-H23 lung
[55] = system: COLO 205 colon
[56] = system: MALME-3M melanoma

**Q.** How did the GI50 [1] turn out when `CC/C(=C(\c1ccc(Cl)cc1)c1ccc(OCCN2CCCCC2)cc1)c1ccc(O)cc1` was run?
**A.** 1750 nM

**Q.** And the TGI [1]?
**A.** 3800 nM

**Q.** And the GI50 [2]?
**A.** 1450 nM

**Q.** And the TGI [2]?
**A.** 2920 nM

**Q.** And the GI50 [3]?
**A.** 1710 nM

**Q.** And the TGI [3]?
**A.** 3250 nM

**Q.** What about the GI50 [4] of the same molecule?
**A.** 1500 nM

**Q.** What about the TGI [4] of the same molecule?
**A.** 3200 nM

**Q.** And the GI50 [5]?
**A.** 1780 nM

**Q.** What about the TGI [5] of the same molecule?
**A.** 4510 nM

**Q.** What about the GI50 [6] of the same molecule?
**A.** 1750 nM

**Q.** What about the TGI [6] of the same molecule?
**A.** 3800 nM

**Q.** What about the GI50 [7] of the same molecule?
**A.** 1970 nM

**Q.** What about the TGI [7] of the same molecule?
**A.** 4350 nM

**Q.** And the GI50 [8]?
**A.** 1680 nM

**Q.** And the TGI [8]?
**A.** 3040 nM

**Q.** What about the GI50 [9] of the same molecule?
**A.** 1600 nM

**Q.** And the TGI [9]?
**A.** 3160 nM

**Q.** What about the GI50 [10] of the same molecule?
**A.** 2190 nM

**Q.** And the TGI [10]?
**A.** 5090 nM

**Q.** And the GI50 [11]?
**A.** 2060 nM

**Q.** And the TGI [11]?
**A.** 4200 nM

**Q.** What about the GI50 [12] of the same molecule?
**A.** 1910 nM

**Q.** And the TGI [12]?
**A.** 4350 nM

**Q.** And the GI50 [13]?
**A.** 1910 nM

**Q.** What about the TGI [13] of the same molecule?
**A.** 3630 nM

**Q.** And the GI50 [14]?
**A.** 1860 nM

**Q.** What about the TGI [14] of the same molecule?
**A.** 4100 nM

**Q.** And the GI50 [15]?
**A.** 1900 nM

**Q.** And the TGI [15]?
**A.** 3540 nM

**Q.** What about the GI50 [16] of the same molecule?
**A.** 2110 nM

**Q.** What about the TGI [16] of the same molecule?
**A.** 5200 nM

**Q.** What about the GI50 [17] of the same molecule?
**A.** 1850 nM

**Q.** What about the TGI [17] of the same molecule?
**A.** 4340 nM

**Q.** What about the GI50 [18] of the same molecule?
**A.** 1720 nM

**Q.** What about the TGI [18] of the same molecule?
**A.** 3200 nM

**Q.** And the GI50 [19]?
**A.** 1690 nM

**Q.** What about the TGI [19] of the same molecule?
**A.** 3230 nM

**Q.** And the GI50 [20]?
**A.** 1880 nM

**Q.** And the TGI [20]?
**A.** 3770 nM

**Q.** What about the GI50 [21] of the same molecule?
**A.** 1870 nM

**Q.** And the TGI [21]?
**A.** 3580 nM

**Q.** What about the GI50 [22] of the same molecule?
**A.** 1760 nM

**Q.** And the TGI [22]?
**A.** 4430 nM

**Q.** What about the GI50 [23] of the same molecule?
**A.** 1910 nM

**Q.** And the TGI [23]?
**A.** 4170 nM

**Q.** What about the GI50 [24] of the same molecule?
**A.** 1820 nM

**Q.** And the TGI [24]?
**A.** 3370 nM

**Q.** And the GI50 [25]?
**A.** 1770 nM

**Q.** What about the TGI [25] of the same molecule?
**A.** 3330 nM

**Q.** And the GI50 [26]?
**A.** 1810 nM

**Q.** And the TGI [26]?
**A.** 3430 nM

**Q.** What about the GI50 [27] of the same molecule?
**A.** 1900 nM

**Q.** What about the TGI [27] of the same molecule?
**A.** 3740 nM

**Q.** And the GI50 [28]?
**A.** 1910 nM

**Q.** And the TGI [28]?
**A.** 3940 nM

**Q.** And the GI50 [29]?
**A.** 1860 nM

**Q.** What about the TGI [29] of the same molecule?
**A.** 4040 nM

**Q.** And the GI50 [30]?
**A.** 1960 nM

**Q.** What about the TGI [30] of the same molecule?
**A.** 4580 nM

**Q.** What about the GI50 [31] of the same molecule?
**A.** 1770 nM

**Q.** And the TGI [31]?
**A.** 3480 nM

**Q.** And the GI50 [32]?
**A.** 2010 nM

**Q.** And the TGI [32]?
**A.** 4440 nM

**Q.** What about the GI50 [33] of the same molecule?
**A.** 1370 nM

**Q.** And the TGI [33]?
**A.** 2660 nM

**Q.** What about the GI50 [34] of the same molecule?
**A.** 1720 nM

**Q.** What about the TGI [34] of the same molecule?
**A.** 3130 nM

**Q.** And the GI50 [35]?
**A.** 1600 nM

**Q.** And the TGI [35]?
**A.** 4620 nM

**Q.** And the GI50 [36]?
**A.** 1810 nM

**Q.** And the TGI [36]?
**A.** 3700 nM

**Q.** What about the GI50 [37] of the same molecule?
**A.** 1750 nM

**Q.** What about the TGI [37] of the same molecule?
**A.** 3420 nM

**Q.** What about the GI50 [38] of the same molecule?
**A.** 62.2 nM

**Q.** And the TGI [38]?
**A.** 2630 nM

**Q.** And the GI50 [39]?
**A.** 1490 nM

**Q.** What about the TGI [39] of the same molecule?
**A.** 3640 nM

**Q.** What about the GI50 [40] of the same molecule?
**A.** 1670 nM

**Q.** And the TGI [40]?
**A.** 3030 nM

**Q.** And the GI50 [41]?
**A.** 1810 nM

**Q.** What about the TGI [41] of the same molecule?
**A.** 3290 nM

**Q.** And the GI50 [42]?
**A.** 1910 nM

**Q.** And the TGI [42]?
**A.** 4930 nM

**Q.** What about the GI50 [43] of the same molecule?
**A.** 1830 nM

**Q.** What about the TGI [43] of the same molecule?
**A.** 3940 nM

**Q.** What about the GI50 [44] of the same molecule?
**A.** 1220 nM

**Q.** What about the TGI [44] of the same molecule?
**A.** 3830 nM

**Q.** What about the GI50 [45] of the same molecule?
**A.** 1610 nM

**Q.** And the TGI [45]?
**A.** 3150 nM

**Q.** What about the GI50 [46] of the same molecule?
**A.** 3310 nM

**Q.** And the TGI [46]?
**A.** 16500 nM

**Q.** And the GI50 [47]?
**A.** 2010 nM

**Q.** What about the TGI [47] of the same molecule?
**A.** 4880 nM

**Q.** What about the GI50 [48] of the same molecule?
**A.** 1980 nM

**Q.** And the TGI [48]?
**A.** 4260 nM

**Q.** And the GI50 [49]?
**A.** 1700 nM

**Q.** And the TGI [49]?
**A.** 3110 nM

**Q.** And the GI50 [50]?
**A.** 1660 nM

**Q.** And the TGI [50]?
**A.** 3360 nM

**Q.** And the GI50 [51]?
**A.** 1900 nM

**Q.** And the TGI [51]?
**A.** 4510 nM

**Q.** And the GI50 [52]?
**A.** 1850 nM

**Q.** And the TGI [52]?
**A.** 3460 nM

**Q.** And the GI50 [53]?
**A.** 1700 nM

**Q.** And the TGI [53]?
**A.** 3080 nM

**Q.** And the GI50 [54]?
**A.** 1880 nM

**Q.** What about the TGI [54] of the same molecule?
**A.** 3840 nM

**Q.** What about the GI50 [55] of the same molecule?
**A.** 1820 nM

**Q.** And the TGI [55]?
**A.** 3860 nM

**Q.** And the GI50 [56]?
**A.** 1750 nM

**Q.** And the TGI [56]?
**A.** 3330 nM
